Experimental data published in US8735414B2 (priority 2009, dated 2014).
pIC50: −log10 of the molar value.

Tested on: bicistronic HCV replicon (replicon RNA, GenBank Accession No. AJ242654)
Experiment: HCV Replicon Assay
Type: cell-based
Conditions: Hepatitis C virus, 72 h, read-out: Replicon IC50

| Compound | pIC50 |
| --- | --- |
| CC(C)(NS(=O)(=O)c1ccc(-c2c(C(=O)O)c3cc(F)c(OC(F)F)cc3n2C2CCCCC2)nc1)C(F)(F)F [compound 928, 1-cyclohexyl-6-(difluoromethoxy)-5-fluoro-2-{5-[(1,1,1-trifluoro-2-methylpropan-2-yl)sulfamoyl]pyridin-2-yl}-1H-indole-3-carboxylic acid] | > 6.30 |
| Cc1cc2c(cc1F)c(C#N)c(-c1ccc(S(=O)(=O)N[C@H](C)C(F)(F)F)cn1)n2C1CCOCC1 [compound 749, 6-[3-cyano-5-fluoro-6-methyl-1-(tetrahydro-2H-pyran-4-yl)-1H-indol-2-yl]-N-[(2R)-1,1,1-trifluoropropan-2-yl]pyridine-3-sulfonamide] | > 6.30 |
| Cc1cc2c(cc1F)c(C#N)c(-c1ncc(S(=O)(=O)N[C@@H](C)C(F)(F)F)cn1)n2C1CCOCC1 [compound 753, 2-[3-cyano-5-fluoro-6-methyl-1-(tetrahydro-2H-pyran-4-yl)-1H-indol-2-yl]-N-[(2S)-1,1,1-trifluoropropan-2-yl]pyrimidine-5-sulfonamide] | > 6.30 |
| Cc1ccc2c(C#N)c(-c3ccc(S(=O)(=O)N[C@@H](C)C4CC4)cn3)n(C(C)C)c2c1 [compound 425, 6-[3-cyano-6-methyl-1-(propan-2-yl)-1H-indol-2-yl]-N-[(1S)-1-cyclopropylethyl]pyridine-3-sulfonamide] | 5.70 to 6.30 |
| N#Cc1c(-c2ccc(S(=O)(=O)NC(CF)CF)cn2)n(C2CCCC2)c2ccc(C(F)F)cc12 [compound 535, 6-[3-cyano-1-cyclopentyl-5-(difluoromethyl)-1H-indol-2-yl]-N-(1,3-difluoropropan-2-yl)pyridine-3-sulfonamide] | > 6.30 |
| Cc1cc2c(cc1F)cc(-c1ccc(S(=O)(=O)N[C@@H](C)C(F)(F)F)cn1)n2-c1cncs1 [compound 959, 6-[5-fluoro-6-methyl-1-(1,3-thiazol-5-yl)-1H-indol-2-yl]-N-[(2S)-1,1,1-trifluoropropan-2-yl]pyridine-3-sulfonamide] | > 6.30 |
| Cc1cc2c(cc1F)c(C#N)c(-c1ccc(S(=O)(=O)NC(C)(C)C)cn1)n2C1CCOCC1 [compound 752, N-tert-butyl-6-[3-cyano-5-fluoro-6-methyl-1-(tetrahydro-2H-pyran-4-yl)-1H-indol-2-yl]pyridine-3-sulfonamide] | > 6.30 |
| Cc1cnc(-n2c(-c3ccc(S(=O)(=O)N[C@@H](C)C(F)(F)F)cn3)c(C#N)c3cc(F)c(C)cc32)cn1 [compound 865, 6-[3-cyano-5-fluoro-6-methyl-1-(5-methylpyrazin-2-yl)-1H-indol-2-yl]-N-[(2S)-1,1,1-trifluoropropan-2-yl]pyridine-3-sulfonamide] | > 6.30 |
| CC(C)NS(=O)(=O)c1ccc(-c2c(C#N)c3cc(Cl)ccc3n2C2CCC2)cn1 [compound 28, 5-(5-chloro-3-cyano-1-cyclobutyl-1H-indol-2-yl)-N-(propan-2-yl)pyridine-2-sulfonamide] | 5.30 to 5.70 |
| N#Cc1c(-c2ncc(S(=O)(=O)NC(CF)CF)cn2)n(C2CCC2)c2cc(C(F)F)ccc12 [compound 330, 2-[3-cyano-1-cyclobutyl-6-(difluoromethyl)-1H-indol-2-yl]-N-(1,3-difluoropropan-2-yl)pyrimidine-5-sulfonamide] | > 6.30 |
| N#Cc1c(-c2ccc(S(=O)(=O)NC(CF)CF)cn2)n(CC2CC2)c2cc(C3CC3)ccc12 [compound 84, 6-[3-cyano-6-cyclopropyl-1-(cyclopropylmethyl)-1H-indol-2-yl]-N-(1,3-difluoropropan-2-yl)pyridine-3-sulfonamide] | > 6.30 |
| CNC(=O)c1c(-c2ccc(S(=O)(=O)N[C@@H](C)C(F)(F)F)cn2)n(C2CCCC2)c2cc(C)c(F)cc12 [compound 761, (S)-1-cyclopentyl-5-fluoro-N,6-dimethyl-2-(5-(N-(1,1,1-trifluoropropan-2-yl)sulfamoyl)pyridin-2-yl)-1H-indole-3-carboxamide] | > 6.30 |
| CC(C)(C)NS(=O)(=O)c1ccc(-c2c(C#N)c3cc(F)ccc3n2-c2ncccn2)nc1 [compound 823, N-tert-butyl-6-[3-cyano-5-fluoro-1-(pyrimidin-2-yl)-1H-indol-2-yl]pyridine-3-sulfonamide] | 5.70 to 6.30 |
| Cc1cc2c(cc1F)c(C#N)c(-c1cc(C)c(S(=O)(=O)N[C@@H](C)C(F)(F)F)cn1)n2-c1ncccn1 [compound 853, 6-[3-cyano-5-fluoro-6-methyl-1-(pyrimidin-2-yl)-1H-indol-2-yl]-4-methyl-N-[(2S)-1,1,1-trifluoropropan-2-yl]pyridine-3-sulfonamide] | > 6.30 |
| Cc1cc2c(cc1F)c(C#N)c(-c1ccc(S(=O)(=O)NC(C)(C)C(F)(F)F)cn1)n2C1CCOCC1 [compound 750, 6-[3-cyano-5-fluoro-6-methyl-1-(tetrahydro-2H-pyran-4-yl)-1H-indol-2-yl]-N-(1,1,1-trifluoro-2-methylpropan-2-yl)pyridine-3-sulfonamide] | > 6.30 |
| C[C@H](NS(=O)(=O)c1ccc(-c2c(C#N)c3cc(Cl)ccc3n2C2CCCC2)nc1)C1CC1 [compound 118, 6-(5-chloro-3-cyano-1-cyclopentyl-1H-indol-2-yl)-N-[(1S)-1-cyclopropylethyl]pyridine-3-sulfonamide] | > 6.30 |

| Compound | pIC50 |
| --- | --- |
| C=CCc1cc2c(cc1F)cc(-c1ccc(S(=O)(=O)N[C@@H](C)C(F)(F)F)cn1)n2-c1ncccn1 [compound 969, 6-[5-fluoro-6-(prop-2-en-1-yl)-1-(pyrimidin-2-yl)-1H-indol-2-yl]-N-[(2S)-1,1,1-trifluoropropan-2-yl]pyridine-3-sulfonamide] | > 6.30 |
| CCc1cc2c(cc1F)c(C#N)c(-c1ccc(S(=O)(=O)N[C@@H](C)C(F)(F)F)cn1)n2-c1ccc(C)cc1 [compound 1004, 6-[3-cyano-6-ethyl-5-fluoro-1-(4-methylphenyl)-1H-indol-2-yl]-N-[(2S)-1,1,1-trifluoropropan-2-yl]pyridine-3-sulfonamide] | > 6.30 |
| C[C@H](NS(=O)(=O)c1ccc(-c2c(C(N)=O)c3cc(F)ccc3n2-c2ccccn2)nc1)C(F)(F)F [compound 748, 5-fluoro-1-(pyridin-2-yl)-2-(5-{[(2S)-1,1,1-trifluoropropan-2-yl]sulfamoyl}pyridin-2-yl)-1H-indole-3-carboxamide] | > 6.30 |
| C[C@H](NS(=O)(=O)c1ccc(-c2c(C#N)c3ccc(Cl)cc3n2C2CCCC2)nc1)C1CC1 [compound 155, 6-(6-chloro-3-cyano-1-cyclopentyl-1H-indol-2-yl)-N-[(1S)-1-cyclopropylethyl]pyridine-3-sulfonamide] | > 6.30 |
| Cc1ccc2c(C#N)c(-c3ccc(S(=O)(=O)N[C@@H](C)C(F)(F)F)cn3)n(-c3ccccc3)c2c1 [compound 440, 6-(3-cyano-6-methyl-1-phenyl-1H-indol-2-yl)-N-[(2S)-1,1,1-trifluoropropan-2-yl]pyridine-3-sulfonamide] | > 6.30 |
| CCc1cc2c(cc1F)c(C#N)c(-c1ccc(S(=O)(=O)N[C@@H](C)C(F)(F)F)cn1)n2-c1ccc(C)cn1 [compound 931, 6-[3-cyano-6-ethyl-5-fluoro-1-(5-methylpyridin-2-yl)-1H-indol-2-yl]-N-[(2S)-1,1,1-trifluoropropan-2-yl]pyridine-3-sulfonamide] | > 6.30 |
| C[C@H](NS(=O)(=O)c1ccc(-c2c(C#N)c3ccc(C4CC4)cc3n2C2CCCC2)nc1)C1CC1 [compound 433, 6-(3-cyano-1-cyclopentyl-6-cyclopropyl-1H-indol-2-yl)-N-[(1S)-1-cyclopropylethyl]pyridine-3-sulfonamide] | > 6.30 |
| CCc1cc2c(cc1F)c(C(N)=O)c(-c1ccc(S(=O)(=O)N[C@@H](C)C(F)(F)F)cn1)n2-c1ncccc1Cl [compound 1042, 1-(3-chloropyridin-2-yl)-6-ethyl-5-fluoro-2-(5-{[(2S)-1,1,1-trifluoropropan-2-yl]sulfamoyl}pyridin-2-yl)-1H-indole-3-carboxamide] | 5.70 to 6.30 |
| CCc1cc2c(cc1F)c(C#N)c(-c1ccc(S(=O)(=O)N[C@H](C)C(F)(F)F)cn1)n2-c1ccccn1 [compound 879, 6-[3-cyano-6-ethyl-5-fluoro-1-(pyridin-2-yl)-1H-indol-2-yl]-N-[(2R)-1,1,1-trifluoropropan-2-yl]pyridine-3-sulfonamide] | > 6.30 |
| CCS(=O)(=O)Nc1ccc(-c2c(C#N)c3ccc(OCC(F)(F)F)cc3n2CC2CC2)cn1 [compound 290, N-{5-[3-cyano-1-(cyclopropylmethyl)-6-(2,2,2-trifluoroethoxy)-1H-indol-2-yl]pyridin-2-yl}ethanesulfonamide] | 5.30 to 5.70 |
| COc1cc2c(cc1F)c(C#N)c(-c1ccc(S(=O)(=O)N[C@@H](C)C(F)(F)F)cn1)n2C1CCC1 [compound 725, 6-(3-cyano-1-cyclobutyl-5-fluoro-6-methoxy-1H-indol-2-yl)-N-[(2S)-1,1,1-trifluoropropan-2-yl]pyridine-3-sulfonamide] | > 6.30 |
| CC1(NS(=O)(=O)c2ccc(-c3c(C#N)c4cc(CC(F)F)ccc4n3C3CCC3)nc2)CC1 [compound 696, 6-[3-cyano-1-cyclobutyl-5-(2,2-difluoroethyl)-1H-indol-2-yl]-N-(1-methylcyclopropyl)pyridine-3-sulfonamide] | > 6.30 |
| Cc1ccc2c(C#N)c(-c3ccc(S(=O)(=O)NC(CF)CF)cn3)n(C3CCC3)c2c1 [compound 82, 6-(3-cyano-1-cyclobutyl-6-methyl-1H-indol-2-yl)-N-(1,3-difluoropropan-2-yl)pyridine-3-sulfonamide] | > 6.30 |
| Cc1cc2c(cc1F)c(Cl)c(-c1ccc(S(=O)(=O)N[C@@H](C)C(F)(F)F)cn1)n2-c1nncs1 [compound 972, 6-[3-chloro-5-fluoro-6-methyl-1-(1,3,4-thiadiazol-2-yl)-1H-indol-2-yl]-N-[(2S)-1,1,1-trifluoropropan-2-yl]pyridine-3-sulfonamide] | 5.30 to 5.70 |
| Cc1c(F)cc2c(C#N)c(-c3ncc(S(=O)(=O)NC(CF)CF)cn3)n(C3CCC3)c2c1F [compound 668, 2-(3-cyano-1-cyclobutyl-5,7-difluoro-6-methyl-1H-indol-2-yl)-N-(1,3-difluoropropan-2-yl)pyrimidine-5-sulfonamide] | > 6.30 |
